Reference: publication PMC11274883, “Anticancer Effect of Pt^[sequence], Pt^II5MESS, Pt^II56MESS and Their Platinum(IV)-Dihydroxy Derivatives against Triple-Negative Breast Cancer and Cisplatin-Resistant Colorectal Cancer” (Cancers, 2024)

How the values were obtained:
Format in all cases: cell-based
[1] = test system: HT29 cells; assay: TMRE mitochondrial membrane potential assay; conditions: complexes at IC50, FCCP 20 µM
Procedure, shortened: (§1)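 Cells treated with each complex at its IC50 concentration for 24, 48 or 72 h, then stained with 1 µM TMRE for 30 min and washed before fluorescence scanning. Three independent experiments in triplicate.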

[2] = test system: MDA−MB−231 cells; assay: TMRE mitochondrial membrane potential assay; conditions: complexes at IC50, FCCP 20 µM
Procedure, shortened: as §1

[3] = test system: HT29 cells; assay: DCFDA cellular ROS detection assay; conditions: complexes at IC50, TBHP 20 µM
Procedure, shortened: (§2)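 Cells seeded at 2500 cells/well overnight, then loaded with 25 µM DCFH-DA for 45 min. DCF fluorescence (ex/em 485/535 nm, RFU) read at multiple time points; 20 µM TBHP served as positive control. Three independent experiments in triplicate.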

[4] = test system: MDA−MB−231 cells; assay: DCFDA cellular ROS detection assay; conditions: complexes at IC50, TBHP 20 µM
Procedure, shortened: as §2

[5] = test system: HT29 cells; assay: Western blot protein expression; conditions: HT29, IC50, 72 h
Procedure, shortened: (§3)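 Cells were lysed in RIPA buffer with orthovanadate, and 20 µg protein was run on SDS-PAGE, transferred to PVDF and probed for proliferation, apoptosis, microtubule and autophagy markers. ECL band intensities were normalised to GAPDH and then to untreated control. Three independent experiments were run per marker.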

[6] = test system: MDA−MB−231 cells; assay: Western blot protein expression; conditions: MDA−MB−231, IC50, 72 h
Procedure, shortened: as §3

[7] = representative blot Figure S30G
[8] = representative blot Figure S30H

Compound: Cc1c(C)c2cccnc2c2ncccc12.N[C@H]1CCCC[C@@H]1N.O=[N+]([O-])[O-].O=[N+]([O-])[O-].[Pt+2] [Pt^II56MESS, [Pt(5,6-dimethyl-1,10-phenanthroline)(1S,2S-diaminocyclohexane)](NO3)2]
- MtMp (mitochondrial membrane potential) ([1]; HT29, 24 h): 159.93 RFU
- MtMp (mitochondrial membrane potential) ([1]; HT29, 48 h): 151.44 RFU
- MtMp (mitochondrial membrane potential) ([1]; HT29, 72 h): 102.76 RFU
- MtMp (mitochondrial membrane potential) ([2]; MDA−MB−231, 24 h): 155.45 RFU
- MtMp (mitochondrial membrane potential) ([2]; MDA−MB−231, 48 h): 131.53 RFU
- MtMp (mitochondrial membrane potential) ([2]; MDA−MB−231, 72 h): 86.51 RFU
- ROS production ([3]; HT29, 24 h): 321.56 RFU
- ROS production ([3]; HT29, 48 h): 433.67 RFU
- ROS production ([3]; HT29, 72 h): 453.89 RFU
- ROS production ([4]; MDA−MB−231, 24 h): 338.49 RFU
- ROS production ([4]; MDA−MB−231, 48 h): 418.08 RFU
- ROS production ([4]; MDA−MB−231, 72 h): 446.09 RFU
- β-actin/GAPDH normalized to control (1) ([5]; representative blot Figure S28A): 0.4943
- β-tubulin/GAPDH normalized to control (1) ([5]; representative blot Figure S28B): 0.2182
- α-tubulin/GAPDH normalized to control (1) ([5]; representative blot Figure S28C): 0.04906
- p-AKT/AKT/GAPDH normalized to control (1) ([5]; representative blot Figure S29A): 0.5359
- p-ERK/ERK/GAPDH normalized to control (1) ([5]; representative blot Figure S29B): 0.8325
- p53/GAPDH normalized to control (1) ([5]; representative blot Figure S29C): 1.014
- p21/GAPDH normalized to control (1) ([5]; representative blot Figure S29D): 1.281
- Bax/GAPDH normalized to control (1) ([5]; representative blot Figure S30A): 2.693
- Bcl2/GAPDH normalized to control (1) ([5]; representative blot Figure S30B): 0.04576
- Cyt C/GAPDH normalized to control (1) ([5]; representative blot Figure S30C): 6.706
- Procaspase 8/GAPDH normalized to control (1) ([5]; representative blot Figure S30D): 0.2505
- Cleaved BID/GAPDH normalized to control (1) ([5]; representative blot Figure S30E): 2.821
- Procaspase 9/GAPDH normalized to control (1) ([5]; representative blot Figure S30F): 0.2717
- Cleaved caspase 3/GAPDH normalized to control (1) [5, 7]: 5.099
- Procaspase 3/GAPDH normalized to control (1) [5, 7]: 0.8936
- Cleaved PARP-1/GAPDH normalized to control (1) [5, 8]: 7.064
- PARP-1/GAPDH normalized to control (1) [5, 8]: 0.317
- Beclin1/GAPDH normalized to control (1) ([5]; representative blot Figure S31A): 5.632
- ATG5/GAPDH normalized to control (1) ([5]; representative blot Figure S31B): 0.6185
- ATG16L1/GAPDH normalized to control (1) ([5]; representative blot Figure S31C): 1.309
- ATG9A/GAPDH normalized to control (1) ([5]; representative blot Figure S31D): 1.516
- ATG4B/GAPDH normalized to control (1) ([5]; representative blot Figure S31E): 0.7106
- LC3B/GAPDH normalized to control (1) ([5]; representative blot Figure S31F): 1.044
- β-actin/GAPDH normalized to control (1) ([6]; representative blot Figure S24A): 0.5956
- β-tubulin/GAPDH normalized to control (1) ([6]; representative blot Figure S24B): 0.5978
- α-tubulin/GAPDH normalized to control (1) ([6]; representative blot Figure S24C): 0.7887
- p-AKT/AKT/GAPDH normalized to control (1) ([6]; representative blot Figure S25A): 0.5229
- p-ERK/ERK/GAPDH normalized to control (1) ([6]; representative blot Figure S25B): 0.06081
- p53/GAPDH normalized to control (1) ([6]; representative blot Figure S25C): 0.6187
- p21/GAPDH normalized to control (1) ([6]; representative blot Figure S25D): 2.6
- Bax/GAPDH normalized to control (1) ([6]; representative blot Figure S26A): 1.276
- Bcl2/GAPDH normalized to control (1) ([6]; representative blot Figure S26B): 0.6846
- Cytochrome C/GAPDH normalized to control (1) ([6]; representative blot Figure S26C): 3.109
- Procaspase 8/GAPDH normalized to control (1) ([6]; representative blot Figure S26D): 0.3584
- Cleaved BID/GAPDH normalized to control (1) ([6]; representative blot Figure S26E): 14.74
- Procaspase 9/GAPDH normalized to control (1) ([6]; representative blot Figure S26F): 0.4755
- Procaspase 3/GAPDH normalized to control (1) ([6]; representative blot Figure S26G): 0.4243
- PARP-1/GAPDH normalized to control (1) ([6]; representative blot Figure S26H): 0.634
- Beclin1/GAPDH normalized to control (1) ([6]; representative blot Figure S27A): 3.15
- ATG5/GAPDH normalized to control (1) ([6]; representative blot Figure S27B): 0.4012
- ATG16L1/GAPDH normalized to control (1) ([6]; representative blot Figure S27C): 0.5726
- ATG9A/GAPDH normalized to control (1) ([6]; representative blot Figure S27D): 0.2848
- ATG4B/GAPDH normalized to control (1) ([6]; representative blot Figure S27E): 2.107
- LC3B/GAPDH normalized to control (1) ([6]; representative blot Figure S27F): 0.8478
